What was measured:
Aiolos = test: IMiD activity: Aiolos degradation in PBMCs by flow cytometry; assay type: cell-based; details: human PBMCs, 24 hours; for Dmax: maximum percent Aiolos degradation in the assay; for DC50: compound concentration degrading 50% of Aiolos
Method: In addition, Compounds 1-24 were assayed for IMiD activity. Frozen human peripheral blood mononuclear cells (PBMCs) were thawed and treated with DMSO or compound for 24 hours and then fixed and permeabilized using a Foxp3/Transcription Factor Fixation/Permeabilization Kit (eBioscience, 00-5523). Cells were stained with fluorophore-conjugated antibodies against CD20 (Biolegend 302330), CD3 (BD Pharmingen 552127), and Aiolos (Biolegend 371106). An additional set of DMSO-treated PBMCs was stained for CD20, CD3, and an AlexaFluor 647-conjugated mouse IgG1 isotype control antibody (Biolegend 400136). Stained cells were run on an Attune NxT Acoustic Focusing Flow Cytometer (Thermo-Fisher A29004), and data was analyzed using FlowJo (v10.5.3) and GraphPad Prism (v7.00) software. Single lymphocytes were gated for B cells (CD20+CD3-) and T cells (CD3+CD20-), and the geometric mean fluorescence intensity (MFI) of Aiolos was calculated for each population. The MFI of the isotype control was calculated for each population and used to quantify background staining. Percent Aiolos degradation was calculated for each compound-treated sample using the following equation: […]
DC50 is the compound concentration degrading 50% of Aiolos. Dmax is the maximum percent Aiolos degradation in the assay.

[1] = system: Experimental autoimmune encephalomyelitis (EAE); test: Experimental autoimmune encephalomyelitis (EAE) model; assay type: in vivo, C57BL/6 mice; details: EAE, 30 mg/kg, spinal cords collected on day 22
Method: EAE was induced in C57BL/6 mice by immunization with an emulsion of MOG1-125 in complete Freund's adjuvant (CFA), followed by administration of pertussis toxin in PBS, first on the day of immunization (Day 0) and then again the following day (Day 1).
Dosing of all mice started on Day −1 and continued through Day 22. Fingolimod (FTY720, Gilenya) is the a commonly used positive control in this model.
Statistical significance was determined between vehicle control and treated groups based on the end clinical scores using Wilcoxon's non-parametric test.
Statistical analysis: Demyelination (anti-MBP) with Wilcoxon's non-parametric test; inflammatory foci or apoptosis with two-tailed Student's t-test.

Row | SMILES | Dmax (Aiolos) | DC50 (Aiolos) | also measured
1 | CN1CCN([C@@H]2CCCN(c3cnc(C(N)=O)c(Nc4ccc(C5CCN(CC6CCN(c7cnc(C(=O)NC8CCC(=O)NC8=O)nc7)CC6)CC5)cc4)n3)C2)C1=O (mixture of isomers) [Compound 3, 5-(4-((4-(4-((3-carbamoyl-6-((R)-3-(3-methyl-2-oxoimidazolidin-1-yl)piperidin-1-yl)pyrazin-2-yl)amino)phenyl)piperidin-1-yl)methyl)piperidin-1-yl)-N—((RS)-2,6-dioxopiperidin-3-yl)pyrimidine-2-carboxamide] | 3.2% | – | –
2 | NC(=O)c1ncc(N2CCCCC2)nc1Nc1ccc2c(c1)CCN(CC1CCN(c3ccc(C(=O)NC4CCC(=O)NC4=O)nc3)CC1)C2 (racemic) [Compound 4, rac-3-[(2-{[1-(6-{[(3R)-2,6-dioxopiperidin-3-yl]carbamoyl}pyridin-3-yl)piperidin-4-yl]methyl}-3,4-dihydro-1H-isoquinolin-6-yl)amino]-5-(piperidin-1-yl)pyrazine-2-carboxamide] | 28.3% | 344 nM | –
3 | CN1CCN([C@@H]2CCCN(c3cnc(C(N)=O)c(Nc4ccc(C5CCN(CC6CCN(c7ccc(C(=O)NC8CCC(=O)NC8=O)cc7)CC6)CC5)cc4)n3)C2)C1=O (mixture of isomers) [Compound 5, 3-((4-(1-((1-(4-(((RS)-2,6-dioxopiperidin-3-yl)carbamoyl)phenyl)piperidin-4-yl)methyl)piperidin-4-yl)phenyl)amino)-5-((R)-3-(3-methyl-2-oxoimidazolidin-1-yl)piperidin-1-yl)pyrazine-2-carboxamide] | 10.1% | 468 nM | –
4 | CN1CCN([C@@H]2CCCN(c3cnc(C(N)=O)c(Nc4ccc(C5CCN(C[C@@H]6CCN(c7ccc8c(c7)n(C)c(=O)n8C7CCC(=O)NC7=O)C6)CC5)cc4)n3)C2)C1=O (mixture of isomers) [Compound 8, 3-((4-(1 (((3 S)-1-(1-(2,6-dioxopiperidin-3-yl)-3-methyl-2-oxo-2,3-dihydro-1H-benzo[d]imidazol-5-yl)pyrrolidin-3-yl)methyl)piperidin-4-yl)phenyl)amino)-5-((R)-3-(3-methyl-2-oxoimidazolidin-1-yl)piperidin-1-yl)pyrazine-2-carboxamide] | 1.0% | – | –
5 | CN1CCN([C@@H]2CCCN(c3cnc(C(N)=O)c(Nc4ccc(C5CCN(C[C@H]6CC[C@@H](Nc7cccc8c7C(=O)N([C@@H]7CCC(=O)NC7=O)C8=O)CC6)CC5)cc4)n3)C2)C1=O (racemic) [Compound 9, 5-[(3R)-3-(3-methyl-2-oxoimidazolidin-1-yl)piperidin-1-yl]-3-{[4-(1-{[(1 s,4s)-4-{[2-(2,6-dioxopiperidin-3-yl)-1,3-dioxoisoindol-4-yl]amino}cyclohexyl]methyl}piperidin-4-yl)phenyl]amino}pyrazine-2-carboxamide] | 30.8% | 96.6 nM | –
6 | CN1CCN([C@@H]2CCCN(c3cnc(C(N)=O)c(Nc4ccc(C5CCN(CC6CCN(c7ccc(C(=O)N[C@@H]8CCC(=O)NC8=O)nc7)CC6)CC5)cc4)n3)C2)C1=O [Compound 2] | 17.9% | 596 nM | –
7 | Cn1c(=O)n([C@@H]2CCC(=O)NC2=O)c2ccc(N3CC[C@H](CN4CCC(c5ccc(Nc6nc(N7CCCCC7)cnc6C(N)=O)cc5)CC4)C3)cc21 [Compound 6] | 1.1% | – | –
8 | Cn1c(=O)n([C@@H]2CCC(=O)NC2=O)c2ccc(N3CC[C@@H](CN4CCC(c5ccc(Nc6nc(N7CCCCC7)cnc6C(N)=O)cc5)CC4)C3)cc21 [Compound 7] | 4.6% | – | –
9 | NC(=O)c1ncc(N2CCCCC2)nc1Nc1ccc(C2CCN(CC3CCN(c4ccc(CC5CCC(=O)NC5=O)cn4)CC3)CC2)cc1 (centres unmarked) [Compound 10] | 3.2% | – | –
10 | CN1CCN([C@@H]2CCCN(c3cnc(C(N)=O)c(Nc4ccc(C5CCN(CC6CCN(c7ncc(C(=O)NC8CCC(=O)NC8=O)o7)CC6)CC5)cc4)n3)C2)C1=O (some centres unmarked) [Compound 11] | 1.9% | – | –
11 | CN1CCN([C@@H]2CCCN(c3cnc(C(N)=O)c(Nc4ccc(C5CCN(CC6CCN(c7ccc8c(c7)n(C)c(=O)n8C7CCC(=O)NC7=O)CC6)CC5)cc4)n3)C2)C1=O (some centres unmarked) [Compound 12] | 5.3% | – | –
12 | CN1CCN([C@@H]2CCCN(c3cnc(C(N)=O)c(Nc4ccc(C5CCN(CC6CCN(c7ccc(OC8CCC(=O)NC8=O)cn7)CC6)CC5)cc4)n3)C2)C1=O (some centres unmarked) [Compound 13] | 4.9% | 2.89 nM | –
13 | NC(=O)c1ncc(N2CCCCC2)nc1Nc1ccc(N2CCC3(CCN(Cc4ccc5c(c4)C(=O)N(C4CCC(=O)NC4=O)C5=O)CC3)CC2)cc1 (centres unmarked) [Compound 14] | 30.4% | 37.6 nM | –
14 | CN1CCN([C@H]2CCCN(c3cnc(C(N)=O)c(Nc4ccc(C5CCN(CC6CCN(c7ccc(C(=O)NC8CCC(=O)NC8=O)nc7)CC6)CC5)cc4)n3)C2)C1=O (some centres unmarked) [Compound 15] | 27.4% | 345 nM | –
15 | CN1CCN([C@@H]2CCCN(c3cnc(C(N)=O)c(Nc4ccc(C5(C)CCN(C6CN(Cc7ccc8c(c7)C(=O)N(C7CCC(=O)NC7=O)C8=O)C6)CC5)cc4)n3)C2)C1=O (some centres unmarked) [Compound 16] | 23.6% | – | –
16 | CN1CCN([C@H]2CCCN(c3cnc(C(N)=O)c(Nc4ccc(N5CCN(CC#Cc6cccc7c6CN(C6CCC(=O)NC6=O)C7=O)CC5)cc4)n3)C2)C1=O (some centres unmarked) [Compound 17] | 15.1% | – | –
17 | CN1CCN([C@@H]2CCCN(c3cnc(C(N)=O)c(Nc4ccc(N5CCC6(CCCN(c7ccc8c(c7)C(=O)N(C7CCC(=O)NC7=O)C8=O)C6)CC5)cc4)n3)C2)C1=O (some centres unmarked) [Compound 18] | 28.2% | 2650 nM | –
18 | CN1CCN([C@@H]2CCCN(c3cnc(C(N)=O)c(Nc4ccc(N5CCN(C(=O)CCOCCCc6ccc7c(c6)C(=O)N(C6CCC(=O)NC6=O)C7)CC5)cc4)n3)C2)C1=O (some centres unmarked) [Compound 19] | 9.1% | – | –
19 | C=CC(=O)N1CCC[C@@H](n2nc(-c3ccc(Oc4ccccc4)cc3)c3c(N)ncnc32)C1 [Ibrutinib, reference compound] | – | – | Apoptotic cells/section +/− SD [1]: 0.4 +/− 0.7; Inflammatory foci/section +/− SD [1]: 1.0 +/− 1.4; Demyelination score +/− SD ([1]; anti-MBP): 0.4 +/− 0.6

Source: patent publication US20240336595A1, “BIFUNCTIONAL COMPOUNDS FOR DEGRADING BTK WITH DIMINISHED IMID ACTIVITY” (NURIX THERAPEUTICS, INC., priority 2021, published 2024)
